The record followed here is ChEMBL document CHEMBL6153058, “Pyrrolopyrazine Compounds as ERK5 Inhibitors for Treating Cancer” (ACS Med Chem Lett, 2025).

This assay addresses Mitogen-activated protein kinase 7 (Homo sapiens, UniProt Q13164). Nature of the assay: Inhibition of ERK5 in human SN12C cells assessed as reduction in luminescence signal by bright glo reagent based luminescent cell assay.

Mitogen-activated protein kinase 7, sequence (Q13164 whole entry): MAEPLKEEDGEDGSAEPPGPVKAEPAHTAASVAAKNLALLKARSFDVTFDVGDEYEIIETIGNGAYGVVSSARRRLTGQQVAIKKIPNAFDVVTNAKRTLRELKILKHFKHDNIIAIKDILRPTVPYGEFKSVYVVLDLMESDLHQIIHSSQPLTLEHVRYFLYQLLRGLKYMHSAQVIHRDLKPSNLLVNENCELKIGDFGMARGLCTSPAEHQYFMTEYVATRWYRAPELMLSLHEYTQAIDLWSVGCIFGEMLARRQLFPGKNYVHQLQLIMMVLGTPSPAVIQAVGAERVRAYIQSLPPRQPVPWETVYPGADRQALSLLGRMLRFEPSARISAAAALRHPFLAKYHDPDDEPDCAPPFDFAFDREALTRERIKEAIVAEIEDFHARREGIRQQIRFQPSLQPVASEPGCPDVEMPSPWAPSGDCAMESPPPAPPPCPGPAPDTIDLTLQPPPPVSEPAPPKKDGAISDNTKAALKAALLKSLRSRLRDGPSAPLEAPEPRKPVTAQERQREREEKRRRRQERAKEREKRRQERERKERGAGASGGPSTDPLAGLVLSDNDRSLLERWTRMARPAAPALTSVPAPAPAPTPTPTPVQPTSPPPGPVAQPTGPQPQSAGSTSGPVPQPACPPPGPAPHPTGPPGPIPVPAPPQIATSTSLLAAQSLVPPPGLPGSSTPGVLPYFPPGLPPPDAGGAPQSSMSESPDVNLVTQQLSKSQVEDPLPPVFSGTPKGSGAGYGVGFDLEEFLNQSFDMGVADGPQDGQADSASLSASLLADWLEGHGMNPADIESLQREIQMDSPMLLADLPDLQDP

In general, IC50 refers to the concentration that inhibits the measured activity by half. Consider `Nc1cc(OC(F)(F)F)ccc1C(=O)N1CCC(c2c[nH]c3ncc([C@H]4CC[C@H](O)CC4)nc23)CC1`, for which the IC50 was found to be 17 nM.

With `Nc1cc(OC(F)(F)F)ccc1C(=O)N1CCC(c2c[nH]c3ncc(C4CCOC4)nc23)CC1` (configuration not stated), the IC50 is 21 nM.
